Data taken from patent US8344010B2, “Fused imidazole derivatives as TRPV3 antagonist” (Glenmark Pharmaceuticals S.A., priority 2008, dated 2013).

Target: T1, Human TRPV3 (Homo sapiens, UniProt Q8NET8)
T1 construct: expressed in transfected cells; host or cells: CHO cells (selected with G-418)
T1 sequence (Q8NET8 1-790): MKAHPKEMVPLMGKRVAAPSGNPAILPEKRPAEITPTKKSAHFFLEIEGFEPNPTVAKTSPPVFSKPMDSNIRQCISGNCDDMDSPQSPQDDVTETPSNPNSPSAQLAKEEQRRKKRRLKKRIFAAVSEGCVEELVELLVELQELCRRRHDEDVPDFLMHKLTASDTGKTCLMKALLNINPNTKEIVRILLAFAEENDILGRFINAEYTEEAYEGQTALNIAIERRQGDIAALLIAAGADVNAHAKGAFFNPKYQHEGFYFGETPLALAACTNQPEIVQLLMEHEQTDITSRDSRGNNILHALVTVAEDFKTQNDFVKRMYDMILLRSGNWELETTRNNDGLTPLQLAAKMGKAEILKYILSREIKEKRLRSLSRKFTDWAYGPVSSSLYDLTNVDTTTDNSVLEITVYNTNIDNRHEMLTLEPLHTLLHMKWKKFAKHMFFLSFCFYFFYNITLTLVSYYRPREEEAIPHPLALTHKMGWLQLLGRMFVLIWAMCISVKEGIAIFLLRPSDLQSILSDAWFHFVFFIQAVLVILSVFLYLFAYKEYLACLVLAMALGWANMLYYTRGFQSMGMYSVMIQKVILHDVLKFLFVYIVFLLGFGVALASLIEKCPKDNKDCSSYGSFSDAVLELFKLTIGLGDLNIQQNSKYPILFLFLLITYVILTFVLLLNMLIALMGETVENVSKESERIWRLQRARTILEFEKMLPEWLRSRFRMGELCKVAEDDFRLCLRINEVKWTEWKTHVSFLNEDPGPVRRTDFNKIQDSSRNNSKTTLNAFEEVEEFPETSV
Assay: 45Calcium uptake assay: inhibition of 2-APB induced cellular uptake of radioactive calcium
Type: cell-based
Conditions: human TRPV3 expressing CHO cells, 2-APB 500 μM; for inhibition at 1 µM: 1 μM test compound, read-out: Percentage Inhibition (1 μM); for inhibition at 10 µM: 10 μM test compound, read-out: Percentage Inhibition (10 μM); for IC50: class symbol
Summary of the method: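 CHO cells expressing human TRPV3 were preincubated with compound for 10 min (0.5% DMSO final), then given 500 μM 2-APB plus 5 μCi/ml 45Ca2+ for 4 min. Lysate radioactivity was counted by scintillation; responses as % of maximal without antagonist, with IC50 by nonlinear regression.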

CCCCCOc1c(/C=C/c2nc3cccnc3n2-c2ccc(C#N)cn2)cccc1OC(F)F [Example 96, 6-(2-{(E)-2-[3-(Difluoromethoxy)-2-pentyloxyphenyl]vinyl}-3H-imidazo[4,5-b]pyridin-3-yl)nicotinonitrile]
inhibition at 1 µM: 97.1% | inhibition at 10 µM: 98.1% | IC50: 50 to 100 nM

COc1cccc(/C=C/c2nc3ccccc3n2-c2ccc(C#N)nn2)c1OC1CCCC1 [Example 20, 6-{2-[(E)-2-(2-[Cyclopentyloxy]-3-methoxyphenyl)vinyl]-1H-benzimidazol-1-yl}pyridazine-3-carbonitrile]
inhibition at 1 µM: 0% | inhibition at 10 µM: 52.7%

CCCCCOc1c(/C=C/c2nc3cc(F)c(F)cc3n2-c2ccc(C#N)cn2)cccc1OC(F)F [Example 82, 6-(2-{(E)-2-[3-(Difluoromethoxy)-2-pentyloxyphenyl]vinyl}-5,6-difluoro-1H-benzimidazol-1-yl)nicotinonitrile]
inhibition at 1 µM: 97% | inhibition at 10 µM: 98.9% | IC50: 50 to 100 nM

COc1ccccc1-n1c(/C=C/c2cccc(OC)c2OC2CCCC2)nc2ccccc21 [Example 32, 2-[(E)-2-(2-Cyclopentyloxy-3-methoxyphenyl)vinyl]-1-(2-methoxyphenyl)-1H-benzimidazole]
inhibition at 1 µM: 9.07% | inhibition at 10 µM: 0%

COc1cccc(/C=C/c2nc3c(F)cc(F)cc3n2-c2ccc(C#N)cn2)c1OC1CCCC1 [Example 80, 6-{4,6-Difluoro-2-[(E)-2-(2-[cyclopentyloxy]-3-methoxyphenyl)vinyl]-1H-benzimidazol-1-yl}nicotinonitrile]
inhibition at 1 µM: 97.6% | inhibition at 10 µM: 98.8% | IC50: 50 to 100 nM

COc1cccc(/C=C/c2nc3ccccc3n2-c2ncc(Cl)cc2Cl)c1OCc1ccccc1 [Example 5, 2-[(E)-2-(2-Benzyloxy-3-methoxyphenyl)vinyl]-1-(3,5-dichloropyridin-2-yl)-1H-benzimidazole]
inhibition at 1 µM: 38.8% | inhibition at 10 µM: 69.3%

COc1cccc(/C=C/c2nc3cc(F)c(F)cc3n2-c2ccc(C(N)=O)nn2)c1OC1CCCC1 [Example 75, 6-{2-[(E)-2-(2-Cyclopentyloxy-3-methoxyphenyl)vinyl]-5,6-difluoro-1H-benzimidazol-1-yl}pyridazine-3-carboxamide]
inhibition at 1 µM: 34.4% | inhibition at 10 µM: 90.7%

COc1cccc(/C=C/c2nc3ccccc3n2Cc2ccc(C#N)cc2)c1OCC1CC1 [Example 42, 4-({2-[(E)-2-(2-Cyclopropylmethoxy-3-methoxyphenyl)vinyl]-1H-benzimidazol-1-yl}methyl)benzonitrile]
inhibition at 1 µM: 60.2% | inhibition at 10 µM: 87.3%

CCCCCOc1c(/C=C/c2nc3ccc[n+]([O-])c3n2-c2ccc(C#N)cn2)cccc1OC [Example 88, 6(2-{(E)-2-[3-methoxy-2-(pentyloxy)phenyl]ethenyl}-4-oxido-3H-imidazo[4,5-b]pyridin-3-yl)pyridine-3-carbonitrile]
inhibition at 1 µM: 25.1% | inhibition at 10 µM: 71.1%

COc1cccc(/C=C/c2nc3cc(F)c(Cl)cc3n2-c2ccc(C#N)cn2)c1OC1CCCC1 [Example 70, 6-{6-Chloro-2-[(E)-2-(2-[cyclopentyloxy]-3-methoxyphenyl)vinyl]-5-fluoro-1H-benzimidazol-1-yl}nicotinonitrile]
inhibition at 1 µM: 96.2% | inhibition at 10 µM: 98.1% | IC50: 50 to 100 nM

COc1cccc(/C=C/c2nc3ccc(OC(F)F)cc3n2-c2ccc(C#N)cn2)c1OC1CCCC1 [Example 58, 6-{6-(Difluoromethoxy)-2-[(E)-2-(2-[cyclopentyloxy]-3-methoxyphenyl)vinyl]-1H-benzimidazol-1-yl}nicotinonitrile]
inhibition at 1 µM: 96.3% | inhibition at 10 µM: 97.9% | IC50: 100 to 500 nM

COc1cccc(/C=C/c2nc3ccccc3n2-c2ccc(C#N)cn2)c1OCC1CC1 [Example 12, 6-{2-[(E)-2-(2-[Cyclopropylmethoxy]-3-methoxyphenyl)vinyl]-1H-benzimidazol-1-yl}nicotinonitrile]
inhibition at 1 µM: 81.4% | inhibition at 10 µM: 97.7% | IC50: 100 to 500 nM
